Experimental findings from paper PMC9977638 (Medicinal Chemistry Research, 2023) are described below.

This assay deals with T1, human recombinant COX-2 (Homo sapiens, UniProt P35354).
T1 sequence (P35354 18-604): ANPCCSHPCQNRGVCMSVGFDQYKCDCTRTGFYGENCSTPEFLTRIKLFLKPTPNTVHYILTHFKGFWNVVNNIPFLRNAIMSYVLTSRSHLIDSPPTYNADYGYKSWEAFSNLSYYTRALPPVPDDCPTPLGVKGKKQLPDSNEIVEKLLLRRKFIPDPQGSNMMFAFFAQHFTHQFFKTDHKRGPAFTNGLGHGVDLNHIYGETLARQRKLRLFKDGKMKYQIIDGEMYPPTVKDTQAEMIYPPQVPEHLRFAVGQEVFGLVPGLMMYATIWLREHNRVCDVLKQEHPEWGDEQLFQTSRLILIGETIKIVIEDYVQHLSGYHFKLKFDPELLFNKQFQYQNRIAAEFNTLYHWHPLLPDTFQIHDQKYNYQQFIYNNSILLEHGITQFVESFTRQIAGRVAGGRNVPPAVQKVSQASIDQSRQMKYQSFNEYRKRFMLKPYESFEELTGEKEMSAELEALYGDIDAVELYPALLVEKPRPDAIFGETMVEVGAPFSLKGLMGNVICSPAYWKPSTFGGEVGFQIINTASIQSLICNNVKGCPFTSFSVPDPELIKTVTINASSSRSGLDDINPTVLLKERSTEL
In kind it is biochemical. The note with it: COX-1 IC50/COX-2 IC50.

Consider `Cc1ccc(Nc2c(-c3ccc(S(C)(=O)=O)cc3)nc3c(C)cccn23)cc1` [Compound 5n, 8-Methyl-2-(4-(methylsulfonyl)phenyl)-N-(p-tolyl)imidazo[1,2-a]pyridin-3-amine], for which the “Selectivity index (S.I.)” value is on record as 508.
